# System: human multiple myeloma cell line, OPM-2
# Assay: Cell viability assay (OPM-2 10 FBS), CellTiter-Glo
# Assay type: cell-based
# Details: Homo sapiens, OPM-2, 16 h, read-out: OPM-2 10% FBS IC50 IP, OPM-2 cells, 10% FBS, 16 h, CellTiter-Glo
# How it was run: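 Serially diluted test compounds are incubated 16 h with cells (3000/well) in RPMI 1640 supplemented with 10% FBS. Viability is then measured by luminescence and IC50 calculated by 4-parameter logistic fit.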
row,Compound,IC50
1,"COC[C@@]1(OC)/C=C/C[C@H](C)[C@@H](C)S(=O)(=O)NC(=O)c2ccc3c(c2)N(C[C@@H]2CC[C@H]21)C[C@@]1(CCCc2cc(Cl)ccc21)CO3 [Example 100464, (1S,3′R,6′R,7′R,8′E,11′S,12′R)-6-chloro-7′-methoxy-7′-(methoxymethyl)-11′,12′-dimethyl-3,4-dihydro-2H,15′H-spiro[naphthalene-1,22′-[20]oxa[13]thia[1,14]diazatetracyclo [14.7.2.0~3,6~.0~19,24~]pentacosa[8,16,18,24]tetraen]-15′-one 13′,13′-dioxide]",1530 nM
2,"CO[C@@]1(CC(=O)NCCO)/C=C/C[C@H](C)[C@@H](C)S(=O)(=O)NC(=O)c2ccc3c(c2)N(C[C@@H]2CC[C@H]21)C[C@@]1(CCCc2cc(Cl)ccc21)CO3 [Example 100465, 2-((1S,3′R,6′R,7′S,8′E,11′S,12′R)-6-chloro-7′-methoxy-11′,12′-dimethyl-13′,13′-dioxido-15′-oxo-3,4-dihydro-2H-spiro[naphthalene-1,22′-[20]oxa[13]thia[1,14]diazatetracyclo [14.7.2.0~3,6~.0~19,24~]pentacosa[8,16,18,24]tetraen]-7′-yl)-N-(2-hydroxyethyl)acetamide]",729 nM
3,"C=C(C)C(=O)C[C@]1(OC)/C=C/C[C@H](C)[C@@H](C)S(=O)(=O)NC(=O)c2ccc3c(c2)N(C[C@@H]2CC[C@H]21)C[C@@]1(CCCc2cc(Cl)ccc21)CO3 [Example 100476, (1S,3′R,6′R,7′S,8′E,11′S,12′R)-6-chloro-7′-methoxy-11′,12′-dimethyl-7′-(3-methyl-2-oxo-3-buten-1-yl)-3,4-dihydro-2H,15′H-spiro[naphthalene-1,22′-[20]oxa[13]thia[1,14]diazatetracyclo [14.7.2.0~3,6~.0~19,24~]pentacosa[8,16,18,24]tetraen]-15′-one 13′,13′-dioxide]",1340 nM
4,"COC(=O)C(C)(C)NC(=O)C[C@]1(OC)/C=C/C[C@H](C)[C@@H](C)S(=O)(=O)NC(=O)c2ccc3c(c2)N(C[C@@H]2CC[C@H]21)C[C@@]1(CCCc2cc(Cl)ccc21)CO3 [Example 100544, methyl N-(((1S,3′R,6′R,7′S,8′E,11′S,12′R)-6-chloro-7′-methoxy-11′,12′-dimethyl-13′,13′-dioxido-15′-oxo-3,4-dihydro-2H-spiro[naphthalene-1,22′-[20]oxa[13]thia[1,14]diazatetracyclo [14.7.2.0~3,6~.0~19,24~]pentacosa[8,16,18,24]tetraen]-7′-yl)acetyl)-2-methylalaninate]",306 nM
5,"CO[C@@]1(CC(=O)NC(C)(C)C(=O)O)/C=C/C[C@H](C)[C@@H](C)S(=O)(=O)NC(=O)c2ccc3c(c2)N(C[C@@H]2CC[C@H]21)C[C@@]1(CCCc2cc(Cl)ccc21)CO3 [Example 100546, N-(((1S,3′R,6′R,7′S,8′E,11′S,12′R)-6-chloro-7′-methoxy-11′,12′-dimethyl-13′,13′-dioxido-15′-oxo-3,4-dihydro-2H-spiro[naphthalene-1,22′-[20]oxa[13]thia[1,14]diazatetracyclo [14.7.2.0~3,6~.0~19,24~]pentacosa[8,16,18,24]tetraen]-7′-yl)acetyl)-2-methylalanine]",440 nM
6,"COC(=O)CNC(=O)C[C@]1(OC)/C=C/C[C@H](C)[C@@H](C)S(=O)(=O)NC(=O)c2ccc3c(c2)N(C[C@@H]2CC[C@H]21)C[C@@]1(CCCc2cc(Cl)ccc21)CO3 [Example 100550, methyl N-(((1S,3′R,6′R,7′S,8′E,11′S,12′R)-6-chloro-7′-methoxy-11′,12′-dimethyl-13′,13′-dioxido-15′-oxo-3,4-dihydro-2H-spiro[naphthalene-1,22′-[20]oxa[13]thia[1,14]diazatetracyclo [14.7.2.0~3,6~.0~19,24~]pentacosa[8,16,18,24]tetraen]-7′-yl)acetyl)glycinate]",6860 nM
7,"CO[C@@]1(CC(=O)NCc2ncco2)/C=C/C[C@H](C)[C@@H](C)S(=O)(=O)NC(=O)c2ccc3c(c2)N(C[C@@H]2CC[C@H]21)C[C@@]1(CCCc2cc(Cl)ccc21)CO3 [Example 100577, 2-((1S,3′R,6′R,7′S,8′E,11′S,12′R)-6-chloro-7′-methoxy-11′,12′-dimethyl-13′,13′-dioxido-15′-oxo-3,4-dihydro-2H-spiro[naphthalene-1,22′-[20]oxa[13]thia[1,14]diazatetracyclo [14.7.2.0~3,6~.0~19,24~]pentacosa[8,16,18,24]tetraen]-7′-yl)-N-(1,3-oxazol-2-ylmethyl)acetamide]",2020 nM
8,"COC(=O)[C@H](NC(=O)C[C@]1(OC)/C=C/C[C@H](C)[C@@H](C)S(=O)(=O)NC(=O)c2ccc3c(c2)N(C[C@@H]2CC[C@H]21)C[C@@]1(CCCc2cc(Cl)ccc21)CO3)[C@@H](C)O [Example 100581, methyl N-(((1S,3′R,6′R,7′S,8′E,11′S,12′R)-6-chloro-7′-methoxy-11′,12′-dimethyl-13′,13′-dioxido-15′-oxo-3,4-dihydro-2H-spiro[naphthalene-1,22′-[20]oxa[13]thia[1,14]diazatetracyclo [14.7.2.0~3,6~.0~19,24~]pentacosa[8,16,18,24]tetraen]-7′-yl)acetyl)-D-allothreoninate]",1540 nM
9,COC(=O)[C@H](NC(=O)C[C@]1(OC)/C=C/C[C@H](C)[C@@H](C)S(=O)(=O)NC(=O)c2ccc3c(c2)N(C[C@@H]2CC[C@H]21)C[C@@]1(CCCc2cc(Cl)ccc21)CO3)C(C)=O [Example 100582],1120 nM
10,"CO[C@@]1(CC(N)=O)/C=C/C[C@H](C)[C@@H](C)S(=O)(=O)NC(=O)c2ccc3c(c2)N(C[C@@H]2CC[C@H]21)C[C@@]1(CCCc2cc(Cl)ccc21)CO3 [Example 100589, 2-((1S,3′R,6′R,7′S,8′E,11′S,12′R)-6-chloro-7′-methoxy-11′,12′-dimethyl-13′,13′-dioxido-15′-oxo-3,4-dihydro-2H-spiro[naphthalene-1,22′-[20]oxa[13]thia[1,14]diazatetracyclo [14.7.2.0~3,6~.0~19,24~]pentacosa[8,16,18,24]tetraen]-7′-yl)acetamide]",3330 nM

# Same assay, conditions: read-out: OPM-2 10% FBS IC50 IP; OPM-2 cells, 10% FBS, 16 h, CellTiter-Glo
row,Compound,IC50
1,"CO[C@@]1(C#CCCN2CCS(=O)(=O)CC2)/C=C/C[C@H](C)[C@@H](C)S(=O)(=O)NC(=O)c2ccc3c(c2)N(C[C@@H]2CC[C@H]21)C[C@@]1(CCCc2cc(Cl)ccc21)CO3 [Example 100456, (1S,3′R,6′R,7′S,8′E,11′S,12′R)-6-chloro-7′-(4-(1,1-dioxido-4-thiomorpholinyl)-1-butyn-1-yl)-7′-methoxy-11′,12′-dimethyl-3,4-dihydro-2H,15′H-spiro[naphthalene-1,22′-[20]oxa[13]thia[1,14]diazatetracyclo [14.7.2.0~3,6~.0~19,24~]pentacosa[8,16,18,24]tetraen]-15′-one 13′,13′-dioxide]",1230 nM
2,"CO[C@@]1(C#CCCc2ccncn2)/C=C/C[C@H](C)[C@@H](C)S(=O)(=O)NC(=O)c2ccc3c(c2)N(C[C@@H]2CC[C@H]21)C[C@@]1(CCCc2cc(Cl)ccc21)CO3 [Example 100519, (1S,3′R,6′R,7′S,8′E,11′S,12′R)-6-chloro-7′-methoxy-11′,12′-dimethyl-7′-(4-(4-pyrimidinyl)-1-butyn-1-yl)-3,4-dihydro-2H,15′H-spiro[naphthalene-1,22′-[20]oxa[13]thia[1,14]diazatetracyclo [14.7.2.0~3,6~.0~19,24~]pentacosa[8,16,18,24]tetraen]-15′-one 13′,13′-dioxide]",138 nM

# Target: recombinant human Mcl-1 (residues 171-327) / Bim interaction (Homo sapiens (Human), UniProt Q07820)
# Assay: biochemical
# Assay type: binding
# Details: 0.1 nM Mcl-1(171-327), 0.05 nM biotin-Bim (51-76); read-out: Mcl-1 HTRF IC50
# recombinant human Mcl-1 (residues 171-327) / Bim interaction, sequence (Q07820 171-327): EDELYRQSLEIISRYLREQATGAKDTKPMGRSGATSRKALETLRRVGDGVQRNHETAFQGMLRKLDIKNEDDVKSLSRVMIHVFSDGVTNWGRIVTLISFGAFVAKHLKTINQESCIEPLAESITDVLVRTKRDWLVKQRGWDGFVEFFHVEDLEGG
row,Compound,IC50
1,"C[C@@H]1[C@@H](C)C/C=C/[C@@]2(CN3CCOC[C@H]3CO2)[C@@H]2CC[C@H]2CN2C[C@@]3(CCCc4cc(Cl)ccc43)COc3ccc(cc32)C(=O)NS1(=O)=O [Example 99, (1S,3′R,6′R,7′S,8′E,9a″S,11′S,12′R)-6-chloro-11′,12′-dimethyl-3,4,6″,7″,9″,9a″-hexahydro-1″H,2H,15′H-dispiro[naphthalene-1,22′-[20]oxa[13]thia[1,14]diazatetracyclo[14.7.2.0˜3,6˜.0˜19,24˜]pentacosa[8,16,18,24]tetraene-7′,3″-[1,4]oxazino[3,4-c][1,4]oxazin]-15′-one 13′,13′-dioxide]",0.243 nM

# Same assay, conditions: Mcl-1 HTRF IC50
row,Compound,IC50
1,"C[C@@H]1[C@@H](C)C/C=C/[C@](O)(CS(=O)(=O)N(C)C)[C@@H]2CC[C@H]2CN2C[C@@]3(CCCc4cc(Cl)ccc43)COc3ccc(cc32)C(=O)NS1(=O)=O (single isomer, unassigned) [Example 100293]",0.522 nM

# Same assay, conditions: TR-FRET, Mcl-1(171-327) / biotin-Bim (51-76); read-out: Mcl-1 HTRF IC50
row,Compound,IC50
1,"C[C@H]1CC/C=C/[C@](C)(O)[C@@H]2CC[C@H]2CN2C[C@@]3(CCCc4cc(Cl)ccc43)COc3ccc(cc32)C(=O)NS1(=O)=O (single isomer, unassigned) [Example 100028]",1.26 nM
2,"C[C@H]1CC/C=C/[C@](C)(O)[C@@H]2CC[C@H]2CN2C[C@@]3(CCCc4cc(Cl)ccc43)COc3ccc(cc32)C(=O)NS1(=O)=O (single isomer, unassigned) [Example 100029]",8.73 nM
3,"C[C@H]1CC/C=C/[C@@](C)(O)[C@@H]2CC[C@H]2CN2C[C@@]3(CCCc4cc(Cl)ccc43)COc3ccc(cc32)C(=O)NS1(=O)=O (single isomer, unassigned) [Example 100032]",0.442 nM
4,"C[C@@H]1CC[C@@H]2CC2[C@](C)(O)[C@@H]2CC[C@H]2CN2C[C@@]3(CCCc4cc(Cl)ccc43)COc3ccc(cc32)C(=O)NS1(=O)=O (stereo in doubt) [Example 100033, (1S,3′R,6′R,7′S,8′S,13′R)-6-chloro-7′-hydroxy-7′,13′-dimethyl-3,4-dihydro-2H,16′H-spiro[naphthalene-1,23′-[21]oxa[14]thia[1,15]diazapentacyclo [15.7.2.0~3,6~.0~8,10~.0~20,25~]hexacosa [17,19,25]trien]-16′-one 14′,14′-dioxide]",2.81 nM

# Same assay, conditions: read-out: Mcl-1 HTRF IC50
row,Compound,IC50
1,"C[C@@H]1[C@@H](C)C/C=C/[C@@](O)(CS(=O)(=O)N(C)C)[C@@H]2CC[C@H]2CN2C[C@@]3(CCCc4cc(Cl)ccc43)COc3ccc(cc32)C(=O)NS1(=O)=O (single isomer, unassigned) [Example 100020]",0.032 nM
